Structures can show the parent of a compound that is named as a salt.
How the values were obtained:
Cat L = Cat L (UniProt P07711); assay: Cathepsin enzyme inhibition assay (fluorogenic peptide substrate Z-Val-Val-Arg-AMC), Cathepsin L; type: biochemical, human and mouse; conditions: enzyme 1 nM, substrate 20 μM, pH 6.5; read-out: CatL IC50
In short: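 Cathepsin L at 1 nM was mixed with compound, then started with 20 μM Z-Val-Val-Arg-AMC in pH 6.5 potassium phosphate with EDTA, Triton X-100 and 5 mM DTT. AMC fluorescence (ex 360/em 465 nm) was followed over 20 min. IC50 is given in μM.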

Cathepsin S = Cathepsin S (UniProt P25774); assay: Cathepsin enzyme inhibition assay (fluorogenic peptide substrate Z-Val-Val-Arg-AMC), Cathepsin S; type: biochemical, human and mouse; conditions: enzyme 1 nM, substrate 20 μM, pH 6.5; read-out: CatS IC50
In short: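 Human or mouse cathepsin S (1 nM) was run in 100 mM potassium phosphate pH 6.5 with 5 mM EDTA, 0.001% Triton X-100 and 5 mM DTT. The rise in AMC fluorescence from cleavage was measured, and IC50 values were calculated by standard methods and expressed in μM.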

IC50 (Cat L) [nM] | IC50 (Cathepsin S) [nM] | Compound
3440 | 0.385 | N#CC1(NC(=O)[C@@H]2C[C@@H](S(=O)(=O)c3ccc(OCC(F)(F)F)cc3Cl)CN2C(=O)C2CC2c2ccccc2)CC1 (stereo partly shown) [Example 247]
240 | 0.615 | N#CC1(NC(=O)[C@@H]2C[C@@H](S(=O)(=O)c3ccccc3Cl)CN2C(=O)C(F)(F)c2ccc(Cl)cc2)CC1 [Example 442, (2S,4R)-4-(2-Chloro-benzenesulfonyl)-1-[2-(4-chloro-phenyl)-2,2-difluoro-acetyl]-pyrrolidine-2-carboxylic acid (1-cyano-cyclopropyl)-amide]
≥ 25000 | 725 | Cc1cc(N2C[C@H](S(=O)(=O)CC3CC3)C[C@H]2C(=O)NC2(C#N)CC2)n(Cc2ccccc2)n1 [Example 445, (2S,4R)-1-(2-Benzyl-5-methyl-2H-pyrazol-3-yl)-4-cyclopropylmethanesulfonyl-pyrrolidine-2-carboxylic acid (1-cyano-cyclopropyl)-amide]
≥ 25000 | 0.2 | N#CC1(NC(=O)[C@@H]2C[C@@H](S(=O)(=O)c3ccccc3C(F)(F)F)CN2C(=O)C2CCCCC2)CC1 [Example 104, (2S,4R)-1-Cyclohexanecarbonyl-4-(2-trifluoromethyl-benzenesulfonyl)-pyrrolidine-2-carboxylic acid (1-cyano-cyclopropyl)-amide]
1180 | 0.17 | N#CC1(NC(=O)[C@@H]2C[C@@H](S(=O)(=O)c3ccc(N4CCN5CCC[C@H]5C4)cc3Cl)CN2C(=O)C2(C(F)(F)F)CC2)CC1 [Example 299, (2S,4R)-4-((S)-2-Chloro-4-hexahydro-pyrrolo[1,2-a]pyrazin-2-yl-benzenesulfonyl)-1-(1-trifluoromethyl-cyclopropanecarbonyl)-pyrrolidine-2-carboxylic acid (1-cyano-cyclopropyl)-amide]
44000 | 2.5 | CC(C)(C)OC(=O)N1C[C@H](S(=O)(=O)c2ccc(N3CCC(C(F)(F)F)CC3)cc2Cl)C[C@H]1C(=O)NC1(C#N)CC1 [Example 153, (2S,4R)-4-[2-Chloro-4-(4-trifluoromethyl-piperidin-1-yl)-benzenesulfonyl]-2-(1-cyano-cyclopropylcarbamoyl)-pyrrolidine-1-carboxylic acid tert.-butyl ester]
27400 | 1.6 | N#CCNC(=O)[C@@H]1C[C@@H](S(=O)(=O)c2ccccc2Cl)CN1C(=O)c1ccccc1 [Example 58, (2S,4R)-1-Benzoyl-4-(2-chloro-benzenesulfonyl)-pyrrolidine-2-carboxylic acid cyanomethyl-amide]
1050 | 0.67 | Cc1cc(N2C[C@H](S(=O)(=O)c3ccccc3Cl)C[C@H]2C(=O)NC2(C#N)CC2)n(CCc2ccccc2)n1 [Example 359, (2S,4R)-4-(2-Chloro-benzenesulfonyl)-1-(5-methyl-2-phenethyl-2H-pyrazol-3-yl)-pyrrolidine-2-carboxylic acid (1-cyano-cyclopropyl)-amide]
6920 | 1.8 | Cc1ccc(S(=O)(=O)[C@H]2CN[C@H](C(=O)NC3(C#N)CC3)C2)c(C)c1 [Example 49, (2S,4R)-4-(2,4-Dimethyl-benzenesulfonyl)-pyrrolidine-2-carboxylic acid (1-cyano-cyclopropyl)-amide Hydrochloride]
≥ 25000 | 1.57 | N#CC1(NC(=O)C2CC(S(=O)(=O)c3ccccc3C(F)(F)F)CN2c2cccc(OC(F)(F)F)c2)CC1 (stereo not shown) [Example 367, 1-(3-Trifluoromethoxy-phenyl)-4-(2-trifluoromethyl-benzenesulfonyl)-pyrrolidine-2-carboxylic acid (1-cyano-cyclopropyl)-amide]
≥ 25000 | 1.57 | Cc1cc(N2C[C@H](S(=O)(=O)c3ccccc3C(F)(F)F)C[C@H]2C(=O)NC2(C#N)CC2)n(-c2nccs2)n1 [Example 234, (2S,4R)-1-(5-Methyl-2-thiazol-2-yl-2H-pyrazol-3-yl)-4-(2-trifluoromethyl-benzenesulfonyl)-pyrrolidine-2-carboxylic acid (1-cyano-cyclopropyl)-amide]
